What was measured:
male rat of SD strain = assay: D-galactosamine-induced necrosis of hepatocytes in rat, plasma AST and ALT; type: in vivo; settings: AMS 1.0 g/kg oral in 0.3% CMC 1 hour before D-galactosamine 600 mg/kg i.p., plasma after 24 hours, p<0.05
Protocol: Action of Aminomethanesulfonic Acid (AMS) to Necrosis of Hepatocytes (Method of Experiment)
A male rat of SD strain of 6 weeks age (150 g) was introduced, subjected to a preliminary breeding by giving CRF-1 (a feed manufactured by Oriental Yeast) and water for six days, fasted for one night and used for the experiment. During the fasting, a 10% aqueous solution of glucose was freely taken by the rat for preventing the lowering of blood-sugar level. D-galactosamine (600 mg/kg) adjusted to pH 6.8 was intraperitoneally administered using a 30% physiological saline solution. After 24 hours from administration of D-galactosamine, 700 μl of blood were collected from subclavian vein under anesthetization with ether and AST (aspartate aminotransferase) and ALT (alanine aminotransferase) in plasma were measured by a Fuji Dry Chem (an automated biochemical measuring apparatus for blood manufactured by Fuji Photo-Film). One hour before the administration of D-galactosamine, AMS was orally administered as a drug to be tested using a 0.3% aqueous solution of carboxymethyl cellulose (CMC).
Group 2: AMS (1.0 g/kg)/0.3% CMC n=8.

[1] = test system: TNFα production in Kupffer cells; assay: LPS-induced TNFα production in rat Kupffer cells (ELISA); type: cell-based; settings: LPS 10 μg/ml, AMS 0.1 to 3 mM (glycine 0.3 to 30 mM), supernatant after 4 hours, FIG. 1
Protocol: A male rat of SD strain (body weight: 200-300 g) was subjected to laparotomy under anesthetization with Nembutal, a collagenase solution was perfused from portal vein, then the liver was excised and Kupffer cells were separated by an elutriator method. The Kupffer cells were adjusted to 5×10^5 cells/ml, each 100μ/well thereof were spread on a 96-well microplate and incubation was carried out for 48 hours using E-MEM (Eagle-MEM) and 10% FCS (fetal calf serum) to conduct the experiment. LPS (lipopoly saccharide) (10 μg/ml) and aminomethanesulofonic acid (AMS) or glycine were added at the same time thereto so as to make their concentrations 0.1 to 3 mM or 0.3 to 30 mM, respectively and the amount of TNFα produced in a supernatant liquid after incubation for 4 hours was measured by an ELISA (enzyme-linked immunosorbent assay).

SMILES: NCS(=O)(=O)O [aminomethanesulfonic acid]
- rise in ALT in the plasma (male rat of SD strain; FIG. 2): significantly inhibited
- rise in AST in the plasma (male rat of SD strain; FIG. 3): significantly inhibited
- inhibition of the production of TNFα [1]: inhibited the production of TNFα in a considerably strong manner as compared with glycine

Source: US20040058993A1, “Inhibitor for the production of TNF alpha” (AJINOMOTO CO. INC., priority 2000, published 2004)
